Data: ChEMBL document CHEMBL1123332, “Synthesis and anti-herpes-virus activity of acyclic 2'-deoxyguanosine analogues related to 9-[(1,3-dihydroxy-2-propoxy)methyl]guanine” (1986)

System: Mus musculus
Assay: Effect of subcutaneous treatment with the compound on HSV-2 encephalitis infection in mice at a dose of 20 mg/kg; 2/10
Assay type: functional
Conditions: not given

SMILES	Survivors
Nc1nc(O)c2ncn(CO[C@H](CO)CF)c2n1	2

System: Mus musculus
Assay: Effect of subcutaneous treatment with the compound on HSV-2 encephalitis infection in mice at a dose of 20 mg/kg; 10/16
Assay type: functional
Conditions: not given

SMILES	Survivors
Nc1nc2c(ncn2COC(CO)CO)c(=O)[nH]1 [GANCICLOVIR]	10

System: Mus musculus
Assay: Effect of subcutaneous treatment with the compound on HSV-2 encephalitis infection in mice at a dose of 20 mg/kg; 3/10
Assay type: functional
Conditions: not given

SMILES	Survivors
Nc1nc(O)c2ncn(COCCOC(CO)CO)c2n1	3

System: Mus musculus
Assay: Mean survival time of HSV-2 encephalitis infectuous mice upon subcutaneous treatment with the compound at a dose of 20 mg/kg
Assay type: functional
Conditions: not given

SMILES	MST [days]
Nc1nc(O)c2ncn(CO[C@H](CO)CF)c2n1	8.5
Nc1nc2c(ncn2COC(CO)CO)c(=O)[nH]1 [GANCICLOVIR]	13.5
Nc1nc(O)c2ncn(COCCOC(CO)CO)c2n1	10.3

System: Thymidine kinase (Human alphaherpesvirus 1)
Assay: Phosphorylation of compound by purified HSV-1 (F strain) thymidine kinase
Design: concentration or dose not given beside the values
Conditions: not given

Activity [%]	SMILES
< 10	NC[C@@H](CO)OCn1cnc2c(O)nc(N)nc21
35	Nc1nc(O)c2ncn(CCOC(CO)CO)c2n1
111	Nc1nc(O)c2ncn(CO[C@H](CO)CCO)c2n1
32	COC[C@@H](CO)OCn1cnc2c(O)nc(N)nc21
25	[N-]=[N+]=NC[C@@H](CO)OCn1cnc2c(O)nc(N)nc21
33	Nc1nc(O)c2ncn(CO[C@H](CO)CCl)c2n1
21	Nc1nc(O)c2ncn(CO[C@H](CO)COC3CCCC3)c2n1
28	C[C@@H](CO)OCn1cnc2c(O)nc(N)nc21
100	CC(CO)(CO)COCn1cnc2c(O)nc(N)nc21

SMILES	Activity [%]
Nc1nc(O)c2ncn(CO[C@H](CO)CF)c2n1	67
Nc1nc(O)c2ncn(COCCOC(CO)CO)c2n1	23

System: not listed separately
Assay: Antiviral activity determined against herpes simplex type 1 (F strain) by plaque reduction in Vero cells
Assay type: functional
Conditions: Chlorocebus sabaeus, read-out: ID50 (the source's name)

IC50 [µM]	SMILES
32	NC[C@@H](CO)OCn1cnc2c(O)nc(N)nc21
> 100	Nc1nc(O)c2ncn(CCOC(CO)CO)c2n1
95	Nc1nc(O)c2ncn(CO[C@H](CO)CCO)c2n1
> 100	Nc1nc2c(ncn2CC(CO)CO)c(=O)[nH]1 [TIVICICLOVIR]
70	COC[C@@H](CO)OCn1cnc2c(O)nc(N)nc21
> 100	[N-]=[N+]=NC[C@@H](CO)OCn1cnc2c(O)nc(N)nc21
60	Nc1nc(O)c2ncn(CO[C@H](CO)CCl)c2n1
40	Nc1nc(O)c2ncn(CO[C@H](CO)COC3CCCC3)c2n1
2.3	C[C@@H](CO)OCn1cnc2c(O)nc(N)nc21
> 100	CC(CO)(CO)COCn1cnc2c(O)nc(N)nc21

SMILES	IC50 [µM]
Nc1nc(O)c2ncn(CO[C@H](CO)CF)c2n1	> 7
Nc1nc2c(ncn2COC(CO)CO)c(=O)[nH]1 [GANCICLOVIR]	0.2
Nc1nc2c(ncn2COCCO)c(=O)[nH]1 [ACYCLOVIR]	0.5
Nc1nc(O)c2ncn(COCCOC(CO)CO)c2n1	> 7
